Legend:
[1] = test system: renal, cerebral and skeletal muscle arterioles; settings: read-out: EC50 as constrictor; cited from earlier work
[2] = test system: vascular smooth muscle cells; settings: read-out: EC50 as constrictor; cited from earlier work
LLC-PK1 cells = settings: 20-HETE 10^−9 M; cited from earlier work
[3] = test system: isolated, pressured rat renal interlobular arteries; experiment: Isolated vessel studies: vasoconstrictor response (vascular diameter) to cumulative doses of 20-HETE analogs; format: cell-based
Method: General. Experiments were performed on 10 to 12-week old male Sprague-Dawley rats purchased from Harlan Sprague-Dawley Laboratories (Indianapolis, Ind.). The rats were housed in the animal care facility at the Medical College of Wisconsin, which is approved by the American Association for the Accreditation of Laboratory Animal Care. The animals had free access to food and water. All protocols involving animals received approval by the Animal Care Committee of the Medical College of Wisconsin.
(§1) Isolated vessel studies. Interlobular arterioles (70-120 μm inner diameter) were microdissected from the kidneys of rats. The vessels were mounted on glass micropipettes in a perfusion chamber containing physiological saline solution equilibrated with a 95% O2-5% CO2 gas mixture and maintained at 37° C. The vessel were secured to the pipettes and side branches were tied off with 10-0 silk suture. The inflow pipette was connected to a pressurized reservoir to control of intraluminal perfusion pressure, which was monitored using a transducer (Cobe, Lakewood, Colo.). The vessels were stretched to in vivo length measured before microdissection. The outflow cannula was clamped off and intraluminal pressure was maintained at 90 mm Hg during the experiment. Vascular diameters were measured with a video system composed of a stereo microscope (Carl Zeiss, Inc., Germany), a CCTV television camera (KP-130AU, Hitachi, Japan), a videocassette recorder (AG-7300, Panasonic, Japan), a television monitor (CVM-1271, Sony, Japan), and a video measuring system (VIA-100, Boeckeler Instrument Co., Tucson, Ariz.).
(§2) The composition of the perfusate and the bath was (in mM): 119 NaCl, 4.7 KCl, 1.17 MgSO4, 1.6 CaCl2, 12 NaHCO3, 1.18 NaH2PO4, 0.03 EDTA and 10 glucose, pH 7.4. Indomethacin (5 μM), baicalein (0.5 μM) and 17-ODYA (1 μM) were added to the bath to block the endogenous formation and metabolism of eicosanoids via the cyclooxygenase, lipoxygenase and cytochrome P450 pathways. After the equilibration period, cumulative dose response curves were generated for each of the 20-HETE analogs.
Effect of the position of the hydroxyl group on the vasoconstrictor response to 20-HETE. These experiments examined the effects of increasing concentrations of 5(S)-, 8(S)-, 12(S)-, 15(S)-, and 19(S)-HETE on the diameter of isolated, pressured rat renal interlobular arteries. All of these analogs have the same number of carbons, double bonds and molecular weight as 20-HETE (FIG. 1). The major difference between these compounds and 20-HETE is the position of the OH group along the carbon chain. Additional experiments were performed with arachidonic acid and 20-carboxyarachidonic acid, which are structurally similar to 20-HETE but lack a hydroxyl group on the 20th carbon and 20-hydroxyeicosa-6, 15-dienoic acid (reverse 20-HETE) which has the carboxy- and hydroxy-moieties on the 1st and 20th carbons reversed. Cumulative dose response curves were generated for each compound (10^−8 to 10^−6 M) in the presence of indomethacin, baicalein, and 17-ODYA. Vascular diameters were recorded 2 to 3 minutes after the addition of the compounds to the bath.
Effect of the double bonds and carbon chain length to the vasoconstrictor response to 20-HETE. We next examined the importance of the double bonds and the length of the carbon chain to the vasoconstrictor response to 20-HETE. In these studies, the double bonds in the 20-HETE molecule were removed creating partial and saturated 20-HETE derivatives (20-hydroxyeicosa-6(Z),15(Z) dienoic acid; 20-hydroxyeicosanoic acid, FIG. 1). 20-HETE was also shortened by one carbon, creating a 19-carbon analog (19-hydroxynonadeca-5(Z),8(Z),11(Z),14(Z)-tetraenoic acid, FIG. 1) and double bonds were removed, creating a saturated 19-carbon analog (19 hydroxynonadecanoic acid, FIG. 1). […]

OK cells = settings: 20-HETE 10^−9 M; cited from earlier work
[4] = test system: vasoconstrictor response to 20-HETE in isolated renal interlobular arteries; experiment: 20-HETE antagonist activity: dose response curves to 20-HETE before and after addition of analog; format: cell-based, rat; settings: analog 0.5 or 1 μM in bath, 20-HETE 10^−8 to 10^−6 M
Method: We also disclose below a test for 20-HETE antagonist activity. In this analysis, test compounds were analyzed by a cumulative dose response curve to 20-HETE generated before and after the addition of the test compound. […] We envision suitable antagonists as similarly blocking the vasoconstrictor response.
as §1, §2
20-HETE antagonist activity. […] In these experiments, cumulative dose response curves to 20-HETE (10^−8 to 10^−6 M) were generated before and after addition of 5(S)-HETE (0.5 μM), 8(S)-HETE (1 μM), 12(S)-HETE (0.5 μM), 15(S)-HETE (1 μM), 19(S)-HETE (1 μM), the C19-analog (1 μM), arachidonic acid (1 μM), 20-carboxy-arachidonic acid (1 μM), reverse 20-HETE (1 μM), saturated 20-HETE (1 μM), and the saturated C19-analog (1 μM) to the bath. Vascular diameters were recorded 2 to 3 minutes after the addition of each dose of 20-HETE to the bath.

Row | SMILES | EC50 [1] [nM] | EC50 [2] [nM] | growth of cultured cells (LLC-PK1 cells) | threshold concentration that reduced vascular diameter ([3]; renal interlobular arterioles) [nM] | growth of cultured cells (OK cells) | melting point [°C] | effect of analog on the vasoconstrictor response to 20-HETE (antagonist activity) [4] | effect of analog on the vasoconstrictor response to 20-HETE (antagonist activity) ([4]; listed as saturated C20-analog) | effect on the diameter of renal interlobular arteries (vasoconstrictor/agonist activity) ([3]; 10^−8 to 10^−6 M (up to 1 μM), indomethacin, baicalein, 17-ODYA present, diameter 2 to 3 minutes after addition)
1 | O=C(O)CCC/C=C\C/C=C\C/C=C\C/C=C\CCCCCO [20-HETE, 20-hydroxyeicosatetraenoic acid] | < 10 | < 10 | promotes the growth | 10 | promotes the growth |  |  |  | 
2 | O=C(O)CCCCCCCCCCCCCCCCCCCO [saturated 20-HETE derivative, 20-Hydroxyeicosanoic Acid] |  |  |  |  |  | 86 | exhibited competitive antagonist activity | not as effective as the parent compounds | no effect
